Laboratory results taken from ChEMBL document CHEMBL4673314, “Stabilization Strategies for Linear Minigastrin Analogues: Further Improvements via the Inclusion of Proline into the Peptide Sequence” (J Med Chem, 2020).
Non-standard residues stand in square brackets, D forms with d. Residues, ends and D or L forms follow the SMILES beside them. *: point of attachment. DOTA = O=C(O)CN1CCN(CC(=O)O)CCN(CC(=O)*)CCN(CC(=O)O)CC1; 1Nal = N[C@@H](Cc1cccc2ccccc12)C(=O)O; NMeNle = CCCC[C@H](NC)C(=O)O

Assay: Retention time of the compound by HPLC method
Type: physicochemical

Retention_time | SMILES
16.8 min | CCCC[C@@H](C(=O)N[C@@H](CC(=O)O)C(=O)N[C@@H](Cc1cccc2ccccc12)C(N)=O)N(C)C(=O)[C@H](Cc1c[nH]c2ccccc12)NC(=O)[C@@H]1CCCN1C(=O)[C@H](Cc1ccc(O)cc1)NC(=O)[C@H](C)NC(=O)[C@@H](CCC(=O)O)NC(=O)CN1CCN(CC(=O)O)CCN(CC(=O)O)CCN(CC(=O)O)CC1 ({DOTA}-[dE]AYPW[NMeNle]D[1Nal]-NH2)
16.9 min | CCCC[C@@H](C(=O)N[C@@H](CC(=O)O)C(=O)N[C@@H](Cc1cccc2ccccc12)C(N)=O)N(C)C(=O)[C@H](Cc1c[nH]c2ccccc12)NC(=O)CNC(=O)[C@H](Cc1ccc(O)cc1)NC(=O)[C@@H]1CCCN1C(=O)[C@@H](CCC(=O)O)NC(=O)CN1CCN(CC(=O)O)CCN(CC(=O)O)CCN(CC(=O)O)CC1 ({DOTA}-[dE]PYGW[NMeNle]D[1Nal]-NH2)
16.9 min | CCCC[C@@H](C(=O)N[C@@H](CC(=O)O)C(=O)N[C@@H](Cc1cccc2ccccc12)C(N)=O)N(C)C(=O)[C@H](Cc1c[nH]c2ccccc12)NC(=O)CNC(=O)[C@@H]1CCCN1C(=O)[C@H](Cc1ccc(O)cc1)NC(=O)[C@@H](CCC(=O)O)NC(=O)CN1CCN(CC(=O)O)CCN(CC(=O)O)CCN(CC(=O)O)CC1 ({DOTA}-[dE]YPGW[NMeNle]D[1Nal]-NH2)
